{"source": "patent EP4603497A1", "about": "“CRYSTAL FORM OF CYANO-SUBSTITUTED POLYPEPTIDE COMPOUND AND PREPARATION METHOD THEREFOR” (Fujian Akeylink Biotechnology Co., Ltd., priority 2022, dated 2024)", "key": {"[1]": {"test": "cytotoxicity experiment (same conditions, without virus infection)", "format": "cell-based", "conditions": "human; MRC5 cells, 5 days, no virus", "method": "(§1) Cells were seeded at a certain density (Table 12) into a 96-well plate and incubated overnight in a 5% CO2, 37°C incubator. The next day, the diluted compound (8 concentration points, double replicate wells) was added thereto, 50 µL per well. Then the diluted virus was added to each well at 100 TCID50, 50 µL per well. Cell controls (cells, no compound treatment or virus infection), virus controls (cells infected with virus, no compound treatment), and culture medium controls (only culture medium) were set up. The final volume of the experimental culture medium was 200 µL, with a final DMSO concentration of 0.5% in the culture medium. The cells were incubated for 5 days in a 5% CO2, 33°C incubator. Cell viability was detected using the CellTiter Glo (Promega) cell viability assay kit. The conditions for the cytotoxicity experiment were the same as for the antiviral experiment, but without virus infection.\nThe antiviral activity and cytotoxicity of the compound were represented by the inhibition rate (%) and the cell viability (%) of the cytopathic effect caused by the virus at different concentrations of the compound, respectively. […]\n(§2) The inhibition rate and cell viability of the compound were analyzed using GraphPad Prism for non-linear fitting, and the half-maximal effective concentration (EC50) and half-maximal cytotoxic concentration (CC50) values of the compound were calculated. […]"}, "[2]": {"test_system": "coronavirus HCoV OC43", "test": "in vitro anti-coronavirus activity, cytopathic model (CPE, CellTiter Glo)", "format": "cell-based", "conditions": "Betacoronavirus 1, 120 h; MRC5 cells, HCoV OC43 100TCID50/well, 5 days", "method": "MRC5 cells and coronavirus HCoV OC43 were purchased from ATCC.\nMRC5 cells were cultured in MEM (Sigma) culture medium supplemented with 10% fetal bovine serum (Excell), 1% dual antibody (Hyclone), 1% L-glutamine (Gibco), and 1% non-essential amino acids (Gibco). MEM (Sigma) culture medium supplemented with 5% fetal bovine serum (Excell), 1% dual antibody (Hyclone), 1% L-glutamine (Gibco), and 1% non-essential amino acids (Gibco) was used as the experimental culture medium.\nas §1, with “The final volume of the experimental culture medium was 200 µL, with a final DMSO concentration of 0.5% in the culture medium. The cells were incubated for 5 days in a 5% CO2, 33°C incubator.” left out, “The conditions for the cytotoxicity experiment were the same as for the antiviral experiment, but without virus infection.” left out\nas §2"}, "[3]": {"molecular_target": "T1, SARS-CoV-2 Mpro (Severe acute respiratory syndrome coronavirus 2, UniProt P0DTD1)", "T1 construct": "SARS-CoV-2 Mpro; purchased WuXi AppTec", "test": "in vitro anti-SARS-CoV-2 Mpro protease activity (fluorescent substrate assay)", "format": "biochemical", "conditions": "25 nM Mpro protein, 25 µM substrate", "method": "The compound was dissolved in DMSO, diluted in a 3-fold gradient using Echo655 according to the required test concentration, with 10 concentration points. Each concentration was duplicated and added to a 384-well plate. The Mpro protein and substrate were diluted with a test buffer (100 mM NaCl, 20 mM Tris-HCl, 1 mM EDTA), and the Mpro protein was added to the 384-well test plate, incubated with the compound at room temperature for 30 min, then the substrate was added. The test concentration of the Mpro protein was 25 nM and the test concentration of the substrate was 25 µM. The mixture was incubated in a constant temperature incubator at 30°C for 60 minutes. Then, the fluorescence signal value at Ex/Em = 340 nm/490 nm was detected using a microplate reader. At the same time, the background well containing substrate and compound but not containing Mpro protein was detected as a control. […]"}, "[4]": {"test_system": "coronavirus OC43 strain", "test": "in vivo antiviral efficacy, suckling mouse infection model", "conditions": "once a day for 7 consecutive days, first dose 2 hours before inoculation", "text": "Experimental example 4: Evaluation of the in vivo antiviral efficacy of the test compound using a suckling mouse infection model with the coronavirus OC43 strain"}, "[5]": {"test": "in vivo", "design": "species or system SD rats", "conditions": "rat; for AUC(0-t): AUC0-last; for half-life: T1/2", "method": "In this study, male and female SD rats were selected as test animals.\nAnimals were grouped according to 3 per group/gender. […] The plasma drug concentration was determined using LC-MS/MS method. Table 14: Pharmacokinetic parameters in rats"}, "[6]": {"test": "stability of the crystal form under different conditions (XRPD confirmation)", "format": "physicochemical", "description": "Table 6: Stability test under different conditions"}, "[7]": {"test": "hygroscopicity by dynamic vapor sorption (DVS)", "format": "physicochemical", "method": "• Instrument model: SMS DVS Advantage dynamic vapor sorption analyzer • Test conditions: A sample (10 to 30 mg) is taken and placed in a DVS sample tray for testing. • The detailed parameters for DVS are as follows: • Temperature: 25°C • Equilibrium: dm/dt = 0.002%/min (minimum: 10 minutes, maximum: 180 minutes) • RH (%) range: 70%RH-95%RH-0%RH-95%RH • RH (%) gradient: 10% (90%RH-0%RH-90%RH), 5% (95%RH-90%RH and 90%RH-95%RH)."}}}
{"smiles": "CC(C)(C)[C@H](NC(=O)C(F)(F)F)C(=O)N1[C@H]2C[C@@H]([C@H]1C(=O)N[C@H](C#N)C[C@@H]1CCNC1=O)C1(CC1)C2", "note": "[Compound 1]", "values": [{"measurement": "CC50 at 120 h", "setting": "[1]", "result": "> 10000", "unit": "nM"}, {"measurement": "EC50", "setting": "[2]", "result": 5.1, "unit": "nM"}, {"measurement": "EC90", "setting": "[2]", "result": 7.9, "unit": "nM"}, {"measurement": "IC50", "setting": "[3]", "result": 1.8, "unit": "nM"}, {"measurement": "Median survival time", "setting": "[4]; 12.5 mg/kg", "result": "> 14", "unit": "days"}, {"measurement": "Survival rate", "setting": "[4]; 12.5 mg/kg", "result": 87.5, "unit": "%"}, {"measurement": "Median survival time", "setting": "[4]; 25 mg/kg", "result": "> 14", "unit": "days"}, {"measurement": "Survival rate", "setting": "[4]; 25 mg/kg", "result": 100, "unit": "%"}, {"measurement": "Median survival time", "setting": "[4]; 50 mg/kg", "result": "> 14", "unit": "days"}, {"measurement": "Survival rate", "setting": "[4]; 50 mg/kg", "result": 100, "unit": "%"}]}
{"smiles": "CC(C)(C)[C@H](NC(=O)C(F)(F)F)C(=O)N1[C@H]2C[C@@H]([C@H]1C(=O)N[C@H](C#N)C[C@@H]1CCNC1=O)C1(CC1)C2", "note": "[Crystal form A]", "values": [{"measurement": "AUC0-last", "setting": "[5]; iv, 2 mg/kg", "result": 778, "unit": "ng·h/mL"}, {"measurement": "AUC(0-inf)", "setting": "[5]; iv, 2 mg/kg", "result": 785, "unit": "ng·h/mL"}, {"measurement": "Cl", "setting": "[5]; iv, 2 mg/kg", "result": 42.5, "unit": "mL/min/kg"}, {"measurement": "T1/2", "setting": "[5]; iv, 2 mg/kg", "result": 18.2, "unit": "min"}, {"measurement": "Vdss", "setting": "[5]; iv, 2 mg/kg", "result": 1.04, "unit": "L/kg"}, {"measurement": "AUC(0-inf)", "setting": "[5]; iv, 2 mg/kg, AUC0-inf", "result": 804, "unit": "ng·h/mL"}, {"measurement": "AUC(0-t)", "setting": "[5]; iv, 2 mg/kg", "result": 792, "unit": "ng·h/mL"}, {"measurement": "clearance", "setting": "[5]; iv, 2 mg/kg, Cl", "result": 42.4, "unit": "mL/min/kg"}, {"measurement": "half-life", "setting": "[5]; iv, 2 mg/kg", "result": 19.8, "unit": "min"}, {"measurement": "Vd", "setting": "[5]; iv, 2 mg/kg, Vdss", "result": 1.11, "unit": "L/kg"}, {"measurement": "AUC0-last", "setting": "[5]; po, 30 mg/kg", "result": 9910, "unit": "ng·h/mL"}, {"measurement": "Tmax", "setting": "[5]; po, 30 mg/kg", "result": 30, "unit": "min"}, {"measurement": "AUC(0-inf)", "setting": "[5]; po, 30 mg/kg, AUC0-inf", "result": 5980, "unit": "ng·h/mL"}, {"measurement": "AUC(0-t)", "setting": "[5]; po, 30 mg/kg", "result": 5960, "unit": "ng·h/mL"}, {"measurement": "half-life", "setting": "[5]; po, 30 mg/kg", "result": 49.6, "unit": "min"}, {"measurement": "Tmax", "setting": "[5]; po, 30 mg/kg, Tmax", "result": 55, "unit": "min"}, {"measurement": "Confirmation of crystal form by XRPD after completion of the experiment", "setting": "[6]; High humidity condition (25°C/92.5%RH), 30 days", "result": "Crystal form A"}, {"measurement": "Confirmation of crystal form by XRPD after completion of the experiment", "setting": "[6]; High temperature (60°C), 30 days", "result": "Crystal form A"}, {"measurement": "Confirmation of crystal form by XRPD after completion of the experiment", "setting": "[6]; Illumination (5000 ± 500 lux (visible light) and 90 µw/cm^2 (ultraviolet)), 10 days", "result": "Crystal form A"}, {"measurement": "hygroscopic weight gain", "setting": "[7]; 25°C and 80% RH", "result": 0.114, "unit": "%"}, {"measurement": "hygroscopicity", "setting": "[7]; 25°C and 80% RH", "result": "no or almost no hygroscopicity"}, {"measurement": "ΔW", "setting": "[7]; DVS pattern, Figure 16", "result": 0.114, "unit": "%"}]}
